From the supplement of paper PMC8967900

What was measured:
Assay in all cases: selective drug sensitivity score (sDSS, relative to normal bone marrow) (sDSS (score)); higher = more potent and effective on the cell line relative to normal bone marrow cells
Conditions in all cases: 72 h
[1] = tested on: TANOUE
[2] = tested on: COG-LL-332h
[3] = tested on: COG-LL-317
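Further: ALL cell lines in 384-well plates, five doses spanning 10,000-fold, each plate scaled between vehicle and 100 µmol/L benzalkonium chloride controls, sDSS an adapted area-under-curve metric.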

Row | SMILES | selective drug sensitivity score [1] | selective drug sensitivity score [2] | selective drug sensitivity score [3]
1 | Cc1cc2c(C(=O)NC[C@H](C)c3ccccc3)c(O)c(O)cc2c(O)c1-c1c(C)cc2c(C(=O)NC[C@H](C)c3ccccc3)c(O)c(O)cc2c1O [Sabutoclax] (top concentration 25000 nM) | 2.98 | 12.8 | 15.6
2 | NC(=O)c1cccc(-c2cccc(OC(=O)NC3CCCCC3)c2)c1 [URB597] (top concentration 1000 nM) | 2.84 | -0.46 | -0.46
3 | C[C@@H](Oc1cc(-c2cnn(C3CCNCC3)c2)cnc1N)c1c(Cl)ccc(F)c1Cl [Crizotinib] (top concentration 1000 nM) | -0.54 | 2.76 | -0.54
4 | COC(=O)c1ccc([C@H]2c3[nH]c4ccccc4c3C[C@H](C(=O)OC)N2C(=O)CCl)cc1 [RSL3] (top concentration 10000 nM) | 0 | 0 | 0.3
5 | CCN(CC)CCCC(C)Nc1ccnc2cc(Cl)ccc12 (stereo unspecified) [Chloroquine] (top concentration 100000 nM) | -6.04 | -0.64 | 0.36
6 | CCC(C)(C)C(=O)O[C@H]1C[C@@H](C)C=C2C=C[C@H](C)[C@H](CC[C@@H]3C[C@@H](O)CC(=O)O3)[C@H]21 [Simvastatin] (top concentration 10000 nM) | -0.72 | 0.68 | 6.68
7 | C[C@]12CC[C@H](O)CC1=CC[C@@H]1[C@@H]2CC[C@]2(C)C(c3cccnc3)=CC[C@@H]12 [Abiraterone] (top concentration 5000 nM) | -0.12 | -0.12 | -0.12
8 | CCc1cc2c(cc1N1CCC(N3CCOCC3)CC1)C(C)(C)c1[nH]c3cc(C#N)ccc3c1C2=O [Alectinib] (top concentration 1000 nM) | -0.22 | 0.18 | 5.48
9 | COc1cc(NS(C)(=O)=O)ccc1Nc1c2ccccc2nc2ccccc12 [Amsacrine] (top concentration 10000 nM) | -11.2 | 20.1 | 25.8
10 | CCNC(=O)CCC/C=C\C[C@@H]1[C@@H](/C=C/[C@@H](O)CCc2ccccc2)[C@H](O)C[C@@H]1O [Bimatoprost] (top concentration 5500 nM) | 0 | 0 | 0
11 | CC#CC(=O)N1CCC[C@H]1c1nc(-c2ccc(C(=O)Nc3ccccn3)cc2)c2c(N)nccn12 [Acalabrutinib] (top concentration 1000 nM) | -0.1 | -0.1 | -0.1
12 | COc1cc(N2CCC(N3CCN(C)CC3)CC2)ccc1Nc1ncnc(Nc2ccccc2S(=O)(=O)C(C)C)n1 [ASP3026] (top concentration 10000 nM) | -2.64 | -0.04 | -1.44
13 | CCCOc1ccn2c(C(C)=O)cc(-c3ccccc3S(C)(=O)=O)c2c1 [GSK2801] (top concentration 10000 nM) | -0.36 | 2.04 | 0.84
14 | Nc1cc(COc2c(Cl)cc(C[C@H](N)C(=O)O)cc2Cl)c2oc(-c3ccccc3)nc2c1 [JPH203] (top concentration 5000 nM) | 0 | 0 | 0
15 | Nc1nc(N)c2nc(-c3cccc(O)c3)c(-c3cccc(O)c3)nc2n1 [TG100-115] (top concentration 10000 nM) | -0.4 | 0.2 | -0.1
16 | Cc1cccc(-c2nn3c(c2-c2ccnc4ccc(C(N)=O)cc24)CCC3)n1 [Galunisertib] (top concentration 1000 nM) | 0 | 0 | 0

Row | SMILES | selective drug sensitivity score [1] | selective drug sensitivity score [2] | selective drug sensitivity score [3]
17 | CNC(=O)c1cccc2cc(Oc3ccnc4cc(OCC5(N)CC5)c(OC)cc34)ccc12 [Lucitanib] (top concentration 10000 nM) | 0.28 | 2.88 | 2.78
18 | COc1cc2ncnc(Nc3cccc(Cl)c3F)c2cc1OC(=O)N1CCN(C)C[C@H]1C [AZD3759] (top concentration 1000 nM) | -0.04 | -0.04 | -0.04
19 | CCn1cc(-c2ccnc3[nH]c(-c4cccc(CN(C)C)c4)cc23)c(-c2ccc(NC(=O)N(C)C)cc2)n1 (top concentration 1000 nM) | -1.84 | 19.3 | 18.7
20 | Cc1cc(F)c(C(=O)Nc2cccc(-c3nncn3C(C)C)n2)cc1-n1cnc(C2CC2)c1 [Selonsertib] (top concentration 1000 nM) | 0 | 0 | 0
21 | O=C1CN2Cc3c(ccc(Cl)c3Cl)N=C2N1 [Anagrelide] (top concentration 10000 nM) | 0 | 0 | 0
22 | Oc1ncnc2[nH]ncc12 [Allopurinol] (top concentration 10000 nM) | -0.64 | -0.64 | -0.64
23 | CC1(C)CNc2cc(NC(=O)c3cccnc3NCc3ccncc3)ccc21 [Motesanib] (top concentration 10000 nM) | 1.58 | -0.22 | -0.22
24 | Cc1c(Cn2c(C)nc3c(C(=O)O)cc(N4CCOCC4)cc32)cccc1C(F)(F)F (top concentration 10000 nM) | -0.02 | 0.98 | 2.28
25 | Cc1cc(-c2ncc(CC(=O)Nc3ccc(-c4cnccn4)cn3)cc2C)ccn1 [NVP-LGK974] (top concentration 10000 nM) | 5.7 | 0.5 | -1.2
26 | CC1=C2C[C@H]3[C@@H](CC[C@@H]4C[C@H](NS(C)(=O)=O)CC[C@@]43C)[C@@H]2CC[C@@]2(C1)O[C@@H]1C[C@H](C)CN[C@H]1[C@H]2C [Saridegib] (top concentration 10000 nM) | -1.16 | -0.06 | -1.16
27 | Cn1cc(C[C@@H](N)C(=O)O)c2ccccc21 [1-methyl-D-tryptophan] (top concentration 5000 nM) | -0.62 | -0.62 | -0.62
28 | CN[C@@H](C)C(=O)N[C@H]1CN(C(=O)CC(C)C)CC[C@H]2CC[C@@H](C(=O)NC(c3ccccc3)c3ccccc3)N2C1=O [AT-406] (top concentration 10000 nM) | -1.26 | 2.54 | 0.64
29 | CC(C)(O)CC(=O)NCCn1ccc2ncnc(Nc3ccc(Oc4cccc(C(F)(F)F)c4)c(Cl)c3)c21 [TAK-285] (top concentration 2500 nM) | 0 | 0 | 0
30 | CN(C)C[C@@H]1CCn2cc(c3ccccc32)C2=C(C(=O)NC2=O)c2cn(c3ccccc23)CCO1 [Ruboxistaurin] (top concentration 10000 nM) | -8.24 | 1.16 | 1.16
31 | C=CCc1cccc(/C=N/NC(=O)CN2CCN(Cc3ccccc3)CC2)c1O [PAC-1] (top concentration 10000 nM) | 2.08 | 7.08 | 12.7
32 | COc1cc(Br)c(Nc2nc(-c3c(C)nc4ncccn34)cs2)c(Br)c1 [PTC-209] (top concentration 10000 nM) | -2.58 | -1.08 | 0.42
